In US3965109A, “Certain aryl amino pyridines” (priority 1971, dated 1976):

Experiments:
[1] = tested on: Tetranychus telarius (red spider mites, adults); test: Pest toxicity test; assay type: in vivo; details: 0.1% by weight; French bean; 3 days
[2] = tested on: Tetranychus telarius (red spider mites, eggs); test: Pest toxicity test; assay type: in vivo; details: 0.1% by weight; French bean; 3 days
Aphis fabae = test: Pest toxicity test; assay type: in vivo; details: 0.1% by weight; broad bean; 2 days
Megoura viceae = test: Pest toxicity test; assay type: in vivo; details: 0.1% by weight; broad bean; 2 days
[3] = tested on: Aedes aegypti (mosquito larvae); test: Pest toxicity test; assay type: in vivo; details: for Mortality grading (kill): 0.01% by weight, water, 1 day; for abnormal growth effects in larva of mosquitos: in vivo
[4] = tested on: Aedes aegypti (mosquito adults); test: Pest toxicity test; assay type: in vivo; details: 0.01% by weight; plywood; 1 day
[5] = tested on: Musca domestica (houseflies); test: Pest toxicity test, contact test; assay type: in vivo; details: 0.1% by weight; milk/sugar; 2 days; flies sprayed directly
[6] = tested on: Pieris brassicae (cabbage white caterpillars); test: Pest toxicity test; assay type: in vivo; details: 0.1% by weight, 2 days
[7] = tested on: Plutella maculipennis (diamond back moth larvae); test: Pest toxicity test; assay type: in vivo
[8] = tested on: Phaedon cochleariae (mustard beetles); test: Pest toxicity test; assay type: in vivo
[9] = tested on: Meloidogyne incognita (nematodes); test: Pest toxicity test; assay type: in vivo; details: 0.01% by weight; water; 1 day
[10] = tested on: Agriolimax reticulatus (slugs); test: Molluscicidal activity test; assay type: in vivo, Agriolimax reticulatus (Mull); details: pellet with 4% by weight; 6 days; 10°C
In short: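 Slugs were starved for 24 hours, then housed two per dish, in duplicate, under high humidity at 10°C. They fed on pellets dried to contain 4% w/w of test compound. Mortality was scored on day 6.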

[11] = tested on: Puccinia recondita (wheat); test: Fungicidal test against foliar disease A (foliage spray plus soil drench); assay type: in vivo; details: 100 ppm spray and drench; 10 days
[12] = tested on: Plasmopara viticola (vine); test: Fungicidal test against foliar disease C (foliage spray plus soil drench); assay type: in vivo; details: 100 ppm spray and drench; 10 days
Uncinula necator (vine) = test: Fungicidal test against foliar disease D (foliage spray plus soil drench); assay type: in vivo; details: 100 ppm spray and drench; 10 days
[13] = tested on: Piricularia oryzae (rice); assay type: in vivo; details: 100 ppm spray and drench; 7 days
[14] = tested on: Phytophthora infestans (tomato); assay type: in vivo; details: 100 ppm spray and drench; 3 days
[15] = 0.1% by weight, mustard/paper, 2 days

SMILES	Mortality grading (kill) [1]	Mortality grading (kill) [2]	Mortality grading (kill) (Aphis fabae)	Mortality grading (kill) (Megoura viceae)	Mortality grading (kill) [3]	abnormal growth effects in larva of mosquitos [3]	Mortality grading (kill) [4]	Mortality grading (kill), contact test [5]	Mortality grading (kill) [6]	Mortality grading (kill) [9]	% Kill of slugs [10]	Mortality grading (kill) ([7]; in vivo)	Mortality grading (kill) ([8]; in vivo)	Amount of disease grading, disease A [11]	Amount of disease grading, disease C [12]	Amount of disease grading, disease D (Uncinula necator (vine))	Amount of disease grading, disease E [13]	other results
Fc1ccc(Nc2c(Cl)c(F)nc(F)c2Cl)cc1 [Compound 4, 3,5-Dichloro-2,6-difluoro-4(p-fluoroanilino)pyridine]	0 (O represents less than 30% kill)	0 (O represents less than 30% kill)	0 (O represents less than 30% kill)	0 (O represents less than 30% kill)	0 (O represents less than 30% kill)	abnormal growth effects	0 (O represents less than 30% kill)	0 (O represents less than 30% kill)	0 (O represents less than 30% kill)	2 (2 represents 60 - 90% kill)	100%	–	–	–	–	–	–	Mortality grading (kill) [7, 15]: 0 (O represents less than 30% kill); Mortality grading (kill) [8, 15]: 0 (O represents less than 30% kill)
O=[N+]([O-])c1ccccc1Nc1c(Cl)c(F)nc(F)c1Cl [Compound 11, 3,5-Dichloro-2,6-difluoro-4(2-nitroanilino)pyridine]	0 (O represents less than 30% kill)	0 (O represents less than 30% kill)	0 (O represents less than 30% kill)	0 (O represents less than 30% kill)	0 (O represents less than 30% kill)	–	0 (O represents less than 30% kill)	0 (O represents less than 30% kill)	0 (O represents less than 30% kill)	2 (2 represents 60 - 90% kill)	–	0 (key: O represents less than 30% kill; 1 represents 30 - 49% kill; 2 represents 60 - 90% kill; 3 represents over 90% kill; C indicates a chemosterilant effect.; A indicates an antifeeding effect.)	0 (key: O represents less than 30% kill; 1 represents 30 - 49% kill; 2 represents 60 - 90% kill; 3 represents over 90% kill; C indicates a chemosterilant effect.; A indicates an antifeeding effect.)	–	–	–	–	–
Fc1nc(F)c(Cl)c(Nc2cc(C(F)(F)F)ccc2Br)c1Cl [Compound 13, 3,5-Dichloro-2,6-difluoro-4(2-bromo-5-trifluoromethylanilino)pyridine]	0 (O represents less than 30% kill)	0 (O represents less than 30% kill)	0 (O represents less than 30% kill)	0 (O represents less than 30% kill)	0 (O represents less than 30% kill)	abnormal growth effects	0 (O represents less than 30% kill)	0 (O represents less than 30% kill)	0 (O represents less than 30% kill)	0 (O represents less than 30% kill)	–	0 (key: O represents less than 30% kill; 1 represents 30 - 49% kill; 2 represents 60 - 90% kill; 3 represents over 90% kill; C indicates a chemosterilant effect.; A indicates an antifeeding effect.)	0 (key: O represents less than 30% kill; 1 represents 30 - 49% kill; 2 represents 60 - 90% kill; 3 represents over 90% kill; C indicates a chemosterilant effect.; A indicates an antifeeding effect.)	0 (61 to 100)	3 (0 to 5)	0 (61 to 100)	2 (6 to 25)	–
O=[N+]([O-])c1cc(C(F)(F)F)ccc1Nc1c(Cl)c(F)nc(F)c1Cl [Compound 16, 3,5-Dichloro-2,6-difluoro-4(2-nitro-4-trifluoromethylanilino) pyridine]	2 (2 represents 60 - 90% kill)	0 (O represents less than 30% kill)	0 (O represents less than 30% kill)	0 (O represents less than 30% kill)	0 (O represents less than 30% kill)	–	0 (O represents less than 30% kill)	0 (O represents less than 30% kill)	0 (O represents less than 30% kill)	2 (2 represents 60 - 90% kill)	50%	0 (key: O represents less than 30% kill; 1 represents 30 - 49% kill; 2 represents 60 - 90% kill; 3 represents over 90% kill; C indicates a chemosterilant effect.; A indicates an antifeeding effect.)	0 (key: O represents less than 30% kill; 1 represents 30 - 49% kill; 2 represents 60 - 90% kill; 3 represents over 90% kill; C indicates a chemosterilant effect.; A indicates an antifeeding effect.)	0 (61 to 100)	3 (0 to 5)	0 (61 to 100)	0 (61 to 100)	Amount of disease grading, disease B [14]: 0 (61 to 100)
COc1ccc(Nc2c(Cl)c(F)nc(F)c2Cl)c([N+](=O)[O-])c1 [Compound 18, 3,5-Dichloro-2,6-difluoro-4(4-methoxy-2-nitroanilino)pyridine]	0 (O represents less than 30% kill)	2 (2 represents 60 - 90% kill)	0 (O represents less than 30% kill)	0 (O represents less than 30% kill)	0 (O represents less than 30% kill)	–	0 (O represents less than 30% kill)	–	0 (O represents less than 30% kill)	0 (O represents less than 30% kill)	50%	0 (key: O represents less than 30% kill; 1 represents 30 - 49% kill; 2 represents 60 - 90% kill; 3 represents over 90% kill; C indicates a chemosterilant effect.; A indicates an antifeeding effect.)	0 (key: O represents less than 30% kill; 1 represents 30 - 49% kill; 2 represents 60 - 90% kill; 3 represents over 90% kill; C indicates a chemosterilant effect.; A indicates an antifeeding effect.)	–	–	–	–	–
Fc1nc(F)c(Cl)c(Nc2c(F)c(F)c(Br)c(F)c2F)c1Cl [Compound 30, 4(4-Bromo-2,3,5,6-tetrafluoroanilino)-3,5-dichloro-2,6-difluoropyridine]	3 (3 represents over 90% kill)	0 (O represents less than 30% kill)	0 (O represents less than 30% kill)	0 (O represents less than 30% kill)	3 (3 represents over 90% kill)	–	2 (2 represents 60 - 90% kill)	0 (O represents less than 30% kill)	3 (3 represents over 90% kill)	3 (3 represents over 90% kill)	100%	1 (key: O represents less than 30% kill; 1 represents 30 - 49% kill; 2 represents 60 - 90% kill; 3 represents over 90% kill; C indicates a chemosterilant effect.; A indicates an antifeeding effect.)	0 (key: O represents less than 30% kill; 1 represents 30 - 49% kill; 2 represents 60 - 90% kill; 3 represents over 90% kill; C indicates a chemosterilant effect.; A indicates an antifeeding effect.)	–	–	–	–	Amount of disease grading, disease A (Table 4) [11]: 0 (61 to 100); Amount of disease grading, disease B (Table 4) [14]: 1 (26 to 60); Amount of disease grading, disease C (Table 4) [12]: 3 (0 to 5); Amount of disease grading, disease D (Table 4) (Uncinula necator (vine)): 0 (61 to 100); Amount of disease grading, disease E (Table 4) [13]: 0 (61 to 100)
